Experimental data taken from patent US20240327393A1 (SIRONAX LTD., priority 2021, published 2024).

System: HT-1080 (ATCC, CCL-121) cells
Test: HT-1080 cell viability assay with ferroptosis inducer RSL3 (Cell Titer-Glo)
Assay type: cell-based
Conditions: Homo sapiens; HT-1080 cells treated with RSL3; 3-fold, 10-point dilution, 1.1 μM highest concentration; Table 2; read-out: EC50 (nM), ferroptosis inhibitory activity
How it was run: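 EC50 was derived by sigmoidal dose-response regression of CellTiter-Glo luminescence viability, expressed relative to untreated wells. Compounds were tested in a ten-point, threefold dilution series (highest 1.1 μM) in the presence of the ferroptosis inducer RSL3. HT-1080 cells had been seeded at 6000 per well and grown overnight first.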

Row | Structure (SMILES) | EC50
1 | Cn1c(=O)c2ccc(Nc3ccc(N4CCC(C(F)(F)F)CC4)cc3)cc2n1C(=O)OC(C)(C)C [Compound 188, tert-butyl 2-methyl-3-oxo-6-((4-(4-(trifluoromethyl)piperidin-1-yl)phenyl)amino)-2,3-dihydro-1H-indazole-1-carboxylate] | 100 to 1000 nM
2 | CC1(C)c2ccc(Nc3ccc(N4CCC(C(F)(F)F)CC4)cc3)cc2CN1C(=O)C1CC1 [Compound 189, cyclopropyl(1,1-dimethyl-5-((4-(4-(trifluoromethyl)piperidin-1-yl)phenyl)amino)isoindolin-2-yl)methanone] | 0.1 to 100 nM
3 | O=C(C1CC1)N1Cc2ccc(Nc3ccc(N4CCC(C(F)(F)F)CC4)cc3)cc2C1 [Compound 190, cyclopropyl(5-((4-(4-(trifluoromethyl)piperidin-1-yl)phenyl)amino)isoindolin-2-yl)methanone] | 0.1 to 100 nM
4 | Cn1[nH]c2cc(Nc3ccc(N4CCC(C(F)(F)F)CC4)cc3)ccc2c1=O [Compound 191, 2-methyl-6-((4-(4-(trifluoromethyl)piperidin-1-yl)phenyl)amino)-1,2-dihydro-3H-indazol-3-one] | 0.1 to 100 nM
5 | CCN1Cc2cc(Nc3cc(F)c(N4CCC(C)CC4)c(F)c3)ccc2C1=O [Compound 193, 5-((3,5-difluoro-4-(4-methylpiperidin-1-yl)phenyl)amino)-2-ethylisoindolin-1-one] | 0.1 to 100 nM
6 | CN1Cc2cc(Nc3ccc(N4CCC(C(F)(F)F)CC4)cc3)cnc2C1=O [Compound 194, 6-methyl-3-((4-(4-(trifluoromethyl)piperidin-1-yl)phenyl)amino)-5,6-dihydro-7H-pyrrolo[3,4-b]pyridin-7-one] | 0.1 to 100 nM
7 | CCN1Cc2ccc(Nc3cnc(N4CCCCC4)c(F)c3)cc2C1 [Compound 195, 2-ethyl-N-(5-fluoro-6-(piperidin-1-yl)pyridin-3-yl)isoindolin-5-amine] | 0.1 to 100 nM
8 | Fc1cc(Nc2ccc3c(c2)CN(CC2CC2)C3)cnc1N1CCCCC1 [Compound 196, 2-(cyclopropylmethyl)-N-(5-fluoro-6-(piperidin-1-yl)pyridin-3-yl) isoindolin-5-amine] | 0.1 to 100 nM
9 | CC(C)(C)N1Cc2cc(Nc3ccc(N4CCC(C(F)(F)F)CC4)cc3)ccc2C1=O [Compound 197, 2-(tert-butyl)-5-((4-(4-(trifluoromethyl)piperidin-1-yl)phenyl)amino) isoindolin-1-one] | 0.1 to 100 nM
10 | COCCOCCN1Cc2cc(Nc3ccc(N4CCC(C(F)(F)F)CC4)cc3)ccc2C1=O [Compound 198, 2-(2-(2-methoxyethoxy)ethyl)-5-((4-(4-(trifluoromethyl)piperidin-1-yl)phenyl)amino)isoindolin-1-one] | 0.1 to 100 nM
11 | O=C1c2ccc(Nc3ccc(N4CCC(C(F)(F)F)CC4)cc3)cc2CN1Cc1ccccc1 [Compound 199, 2-benzyl-5-((4-(4-(trifluoromethyl)piperidin-1-yl)phenyl)amino) isoindolin-1-one] | 0.1 to 100 nM
12 | CN(C)CCCN1Cc2cc(Nc3ccc(N4CCC(C(F)(F)F)CC4)cc3)ccc2C1=O [Compound 200, 2-(3-(dimethylamino)propyl)-5-((4-(4-(trifluoromethyl)piperidin-1-yl)phenyl)amino)isoindolin-1-one] | 0.1 to 100 nM
13 | CN1C(=O)c2ccc(Nc3ccc(N4CCC(C(F)(F)F)CC4)cc3)cc2C1=O [Compound 201, 2-methyl-5-((4-(4-(trifluoromethyl)piperidin-1-yl)phenyl)amino) isoindoline-1,3-dione] | 0.1 to 100 nM
14 | CC(C)(C)NC(=O)N1Cc2ccc(Nc3ccc(N4CCC(C(F)(F)F)CC4)cc3)cc2C1 [Compound 205, N-(tert-butyl)-5-((4-(4-(trifluoromethyl)piperidin-1-yl)phenyl)amino) isoindoline-2-carboxamide] | 0.1 to 100 nM
15 | Cn1cnc(N2Cc3cc(Nc4ccc(N5CCC(C(F)(F)F)CC5)cc4)ccc3C2=O)c1 [Compound 206, 2-(1-methyl-1H-imidazol-4-yl)-5-((4-(4-(trifluoromethyl)piperidin-1-yl)phenyl)amino)isoindolin-1-one] | 0.1 to 100 nM
16 | CC1CN(c2ccc(Nc3ccc4c(c3)nnn4C)cc2)CC(C)O1 (stereo not drawn) [Compound 207, N-(4-(2,6-dimethylmorpholino)phenyl)-1-methyl-1H-benzo[d][1,2,3]triazol-5-amine] | 0.1 to 100 nM
17 | CN1CCC(N2Cc3cc(Nc4ccc(N5CCC(C(F)(F)F)CC5)cc4)ccc3C2=O)CC1 [Compound 208, 2-(1-methylpiperidin-4-yl)-5-((4-(4-(trifluoromethyl)piperidin-1-yl)phenyl)amino)isoindolin-1-one] | 0.1 to 100 nM
18 | O=C1c2ccc(Nc3ccc(N4CCC(C(F)(F)F)CC4)cc3)cc2CN1C1CC1 [Compound 209, 2-cyclopropyl-5-((4-(4-(trifluoromethyl)piperidin-1-yl)phenyl)amino) isoindolin-1-one] | 0.1 to 100 nM
19 | CC(C)N1Cc2cc(Nc3ccc(N4CCC(C(F)(F)F)CC4)cc3)ccc2C1=O [Compound 210, 2-isopropyl-5-((4-(4-(trifluoromethyl)piperidin-1-yl)phenyl)amino) isoindolin-1-one] | 0.1 to 100 nM
20 | O=C1c2ccc(Nc3ccc(N4CCC(C(F)(F)F)CC4)cc3)cc2CN1CC=C(F)F [Compound 215, 2-(3,3-difluoroallyl)-5-((4-(4-(trifluoromethyl)piperidin-1-yl)phenyl)amino)isoindolin-1-one] | 0.1 to 100 nM
21 | Cn1c(=O)c2ccc(Nc3ccc(N4CCC(C(F)(F)F)CC4)c(F)c3)cc2n1C(=O)OC(C)(C)C [Compound 216, tert-butyl 6-((3-fluoro-4-(4-(trifluoromethyl)piperidin-1-yl)phenyl)amino)-2-methyl-3-oxo-2,3-dihydro-1H-indazole-1-carboxylate] | 0.1 to 100 nM
22 | CCn1c2cc(Nc3ccc(N4CCC(C(F)(F)F)CC4)cc3)ccc2c(=O)n1C [Compound 218, 1-ethyl-2-methyl-6-((4-(4-(trifluoromethyl)piperidin-1-yl)phenyl)amino)-1,2-dihydro-3H-indazol-3-one] | 0.1 to 100 nM
23 | Cn1[nH]c2cc(Nc3ccc(N4CCC(C(F)(F)F)CC4)c(F)c3)ccc2c1=O [Compound 219, 6-((3-fluoro-4-(4-(trifluoromethyl)piperidin-1-yl)phenyl)amino)-2-methyl-1,2-dihydro-3H-indazol-3-one] | 0.1 to 100 nM
24 | Cn1c(=O)n(C)c2cc(Nc3ccc(N4CCC(C(F)(F)F)CC4)cc3)ccc21 [Compound 220, 1,3-dimethyl-5-((4-(4-(trifluoromethyl)piperidin-1-yl)phenyl)amino)-1,3-dihydro-2H-benzo[d]imidazol-2-one] | 0.1 to 100 nM
25 | CC1CCC(N2Cc3cc(Nc4ccc(N5CCC(C(F)(F)F)CC5)cc4)ccc3C2=O)CC1 (stereo not drawn) [Compound 221, 2-(4-methylcyclohexyl)-5-((4-(4-(trifluoromethyl)piperidin-1-yl)phenyl)amino)isoindolin-1-one] | 0.1 to 100 nM
26 | Cn1c(=O)c2ccc(Nc3ccc(N4CCC(C(F)(F)F)CC4)cc3)cc2n1C [Compound 224, 1,2-dimethyl-6-((4-(4-(trifluoromethyl)piperidin-1-yl)phenyl)amino)-1,2-dihydro-3H-indazol-3-one] | 0.1 to 100 nM

Other lines, results leading:

Row | EC50 | Structure (SMILES)
27 | 0.1 to 100 nM | CC1CCN(c2c(F)cc(Nc3ccc4c(c3)CN(C)C4=O)cc2F)CC1 [Compound 192, 5-((3,5-difluoro-4-(4-methylpiperidin-1-yl)phenyl)amino)-2-methylisoindolin-1-one]
28 | 0.1 to 100 nM | CN1Cc2cc(Nc3ccc(N4CCC(C(F)(F)F)CC4)cc3)cc(F)c2C1=O [Compound 202, 7-fluoro-2-methyl-5-((4-(4-(trifluoromethyl)piperidin-1-yl)phenyl)amino) isoindolin-1-one]
29 | 0.1 to 100 nM | CN1Cc2cc(Nc3ccc(N4CCC(C(F)(F)F)CC4)cc3)cc(Cl)c2C1=O [Compound 203, 7-chloro-2-methyl-5-((4-(4-(trifluoromethyl)piperidin-1-yl)phenyl)amino) isoindolin-1-one]
30 | 0.1 to 100 nM | CN1Cc2cc(Nc3ccc(N4CCC(C(F)(F)F)CC4)c(F)c3)ccc2C1=O [Compound 204, 5-((3-fluoro-4-(4-(trifluoromethyl)piperidin-1-yl)phenyl)amino)-2-methylisoindolin-1-one]
31 | 0.1 to 100 nM | CN1Cc2cc(Nc3ccc(N4CCC(C)(C)CC4)cc3)ccc2C1=O [Compound 211, 5-((4-(4,4-dimethylpiperidin-1 yl)phenyl)amino)-2-methylisoindolin-1-one]
32 | 0.1 to 100 nM | CN1Cc2cc(Nc3ccc(N4CCCCC4)cc3)ccc2C1=O [Compound 217, 2-methyl-5-((4-(piperidin-1-yl)phenyl)amino)isoindolin-1-one]
33 | 0.1 to 100 nM | CN1Cc2cc(Nc3ccc(N4CCC(C(F)(F)F)C4)cc3)ccc2C1=O (stereo not drawn) [Compound 222, 2-methyl-5-((4-(3-(trifluoromethyl)pyrrolidin-1-yl)phenyl)amino) isoindolin-1-one]
34 | 0.1 to 100 nM | CN1Cc2cc(Nc3ccc(N4CC(C)(C)C4)cc3)ccc2C1=O [Compound 223, 5-((4-(3,3-dimethylazetidin-1-yl)phenyl)amino)-2-methylisoindolin-1-one]
35 | 0.1 to 100 nM | CN1Cc2cc(Nc3ccc(N4CCCCC4)c(Cl)c3)ccc2C1=O [Compound 225, 5-((3-chloro-4-(piperidin-1-yl)phenyl)amino)-2-methylisoindolin-1-one]
36 | 0.1 to 100 nM | Cc1cc(C)cc(Nc2ccc3c(c2)CN(C)C3=O)c1 [Compound 226, 5-((3,5-dimethylphenyl)amino)-2-methylisoindolin-1-one]
37 | 0.1 to 100 nM | CN1Cc2cc(Nc3ccc(N(C)C)cc3)ccc2C1=O [Compound 227, 5-((4-(dimethylamino)phenyl)amino)-2-methylisoindolin-1-one]
38 | 0.1 to 100 nM | CN1Cc2cc(Nc3ccc(-c4ccccc4)cc3)ccc2C1=O [Compound 228, 5-([1,1′-biphenyl]-4-ylamino)-2-methylisoindolin-1-one]
39 | 0.1 to 100 nM | CN1Cc2cc(Nc3ccc4c(c3)OCCO4)ccc2C1=O [Compound 229, 5-((2,3-dihydrobenzo[b][1,4]dioxin-6-yl)amino)-2-methylisoindolin-1-one]
